Test results published in patent EP1389461A1, “Pyrimidones with antiviral properties” (Axxima Pharmaceuticals Aktiengesellschaft, priority 2002, dated 2004).

Test system: HCMV
Experiment: HCMV replication in vitro
Format: cell-based, human cytomegalovirus (HCMV)
Details: Human betaherpesvirus 5

**Q.** With `Nc1nc(O)c2ncn(COC(CO)CO)c2n1` [ganciclovir] as the compound, how does the IC50 read?
**A.** The IC50 was 3 to 4 µM.
